Reference: patent publication US10457637B2, “Benzenesulfonamide derivatives as inverse agonists of retinoid-related orphan receptor gamma (RORγ(T))” (GALDERMA RESEARCH & DEVELOPMENT, priority 2014, dated 2019)

Legend:
[1] = test system: IL-17A secretion by CD4+ cells; test: IL-17A secretion by CD4+ cells (HTRF); assay type: cell-based; conditions: 96 h; human CD4+ cells activated with anti-CD3 and anti-CD28, 4 days of incubation; read-out: IC50 hCD4/IL17
Procedure: This model allows measurement of the effect of inhibitors on IL-17A secretion by CD4+ cells. […] The amount of IL-17a secreted is measured by the TR-FRET (kit HTRF® Human Interleukin 17A (Cisbio, #64H17PEC)) technology.
The cells are rapidly thawed, resuspended in their culture medium (RPMI inactivated 10% FCS) supplemented with soluble anti-CD28 antibodies and seeded (100 000 cells/well) in 96-well plates precoated with anti-CD3 antibodies. The cells are then treated with the ranges of inhibitors to be tested (from 1000 nM to 0.05 nM, 0.1% DMSO). […] The IC50 values are calculated from a 4-parameter logistic model using the XLFit software (IDBS).

[2] = molecular target: ROR gamma ligand-binding domain (hRORg) (Homo sapiens (Human), UniProt P51449); test: GAL4-RORγ transactivation (luciferase reporter, HG5LN HeLa line); assay type: cell-based; conditions: 18 hours incubation
Text: GAL4-RORγ Transactivation
The RORγ transactivation model was developed from the line HG5LN, which is a HeLa line that stably expresses a luciferase reporter gene controlled by a pentamer of the GAL4 recognition domain of yeast and of a β-globin promoter. The HG5LN line was stably transfected by the DNA-binding domain (DBD) of GAL4 fused to the ROR gamma ligand-binding domain (LBD). Molecules that inhibit the ROR gamma constitutive activity reduce the luciferase expression, thus leading to a reduction in the emitted luminescence.
The cells are seeded in 384-well plates (5000 cells in 45 μL/well of culture medium containing 10% fetal calf serum) and incubated for 4 hours at 37° C., 5% CO2. 5 μL of the test molecules (compounds described in the tables described above) are then added to each well and the plates are incubated for 18 hours at a temperature of 37° C. under 5% of CO2. 20 μL of luciferase substrate (Promega) are added to each well and the luminescence emitted is read by a microplate reader.
The luminescence units (“RLU”) are normalized by positive controls (“POS” containing a saturated concentration of benzenesulfonamide, N-(2,2,2-trifluoroethyl)-N-[4-[2,2,2-trifluoro-1-hydroxy-1-(trifluoromethyl)ethyl]phenyl]) and negative controls (“NEG” containing DMSO): % inhibition=((RLU−NEG)*100)/(POS−NEG). The IC50 values are calculated from a 4-parameter logistic model using the XLFit software (IDBS).

Chain of ROR gamma ligand-binding domain (hRORg) (P51449 269-508): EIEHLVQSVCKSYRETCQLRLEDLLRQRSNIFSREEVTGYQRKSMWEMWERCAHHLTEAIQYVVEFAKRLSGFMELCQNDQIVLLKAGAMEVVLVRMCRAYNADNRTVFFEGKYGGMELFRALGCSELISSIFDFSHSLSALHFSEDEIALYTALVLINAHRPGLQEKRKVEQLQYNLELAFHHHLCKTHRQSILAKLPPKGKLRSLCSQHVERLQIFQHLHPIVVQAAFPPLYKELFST

In the case of `CCc1ccc(N(CC(C)C)S(=O)(=O)c2ccc(OCC3CCOCC3)c(S(=N)(=O)CC)c2)cc1` (stereo not shown) [compound 18, N-(4-ethylphenyl)-N-isobutyl-3-ethanesulfoximino-4-(tetrahydropyran-4-ylmethoxy)benzenesulfonamide], the IC50 [1] is reported as under 0.1 µM.

With `CCc1ccc(N(CC(C)C)S(=O)(=O)c2ccc(NCC3CCOCC3)c(S(C)(=N)=O)c2)cc1` (stereo not shown) [compound 52, N-(4-ethylphenyl)-N-isobutyl-3-(S-methysulfonimidoyl)-4-[(tetrahydropyran-4-ylmethyl)amino]benzenesulfonamide] the IC50 [1] was under 0.1 µM.

Compound `CCc1ccc(N(CC(C)C)S(=O)(=O)c2ccc(OCC3CCOCC3)c(S(N)(=O)=O)c2)cc1` [compound 66, 4-(tetrahydropyran-4-ylmethoxy)benzene-1,3-disulfonic acid 3-amide 1-[(4-ethylphenyl)isobutylamide]] has an IC50 [1] of under 0.1 µM.

`CCc1ccc(N(CC(C)C)S(=O)(=O)c2ccc(N3CC4CC3CO4)c(S(C)(=N)=O)c2)cc1` [compound 117, 4-((1R,4R)-2-oxa-5-azabicyclo[2.2.1]heptan-5-yl)-N-(4-ethylphenyl)-N-isobutyl-3-(S-methylsulfonimidoyl)benzenesulfonamide] gave an IC50 [2] of 0.1 to 1 µM.

`CCc1ccc(N(CC(C)C)S(=O)(=O)c2ccc(NCc3nn[nH]n3)c(S(C)(=N)=O)c2)cc1` (stereo not shown) [compound 118, 4-(((2H-tetrazol-5-yl)methyl)amino)-N-(4-ethylphenyl)-N-isobutyl-3-(S-methylsulfonimidoyl)benzenesulfonamide] was tested, and the IC50 [2] was over 1 µM.

For `CCc1ccc(N(CC(C)C)S(=O)(=O)c2ccc(N3CC4(CNC4)C3)c(S(C)(=N)=O)c2)cc1` (stereo not shown) [compound 121, -(4-ethylphenyl)-N-isobutyl-3-(S-methylsulfonimidoyl)-4-(2,6-diazaspiro[3.3]heptan-2-yl)benzenesulfonamide], the IC50 [2] was over 1 µM.

Work on `CCc1ccc(N(CC(C)C)S(=O)(=O)c2ccc(N3CC4(CN(C(C)=O)C4)C3)c(S(C)(=N)=O)c2)cc1` (stereo not shown) [compound 122, 4-(6-acetyl-2,6-diazaspiro[3.3]heptan-2-yl)-N-(4-ethylphenyl)-N-isobutyl-3-(S-methylsulfonimidoyl)benzenesulfonamide] yielded an IC50 [2] of over 1 µM.

`CCc1ccc(N(CC(C)C)S(=O)(=O)c2ccc(NCC3(CC)COC3)c(S(C)(=N)=O)c2)cc1` (stereo not shown) [compound 126, 4-(((3-ethyloxetan-3-yl)methyl)amino)-N-(4-ethylphenyl)-N-isobutyl-3-(S-methylsulfonimidoyl)benzenesulfonamide] was tested, and the IC50 [2] was over 1 µM.

In the case of `CCc1ccc(N(CC(C)C)S(=O)(=O)c2ccc(NCc3ccnc(OC)c3)c(S(C)(=N)=O)c2)cc1` (stereo not shown) [compound 127, N-(4-ethylphenyl)-N-isobutyl-4-(((2-methoxypyridin-4-yl)methyl)amino)-3-(S-methylsulfonimidoyl)benzenesulfonamide], the IC50 [2] is reported as 0.1 to 1 µM.

`CCc1ccc(N(CC(C)C)S(=O)(=O)c2ccc(NCC3(N4CCCC4)COC3)c(S(C)(=N)=O)c2)cc1` (stereo not shown) [compound 132, N-(4-ethylphenyl)-N-isobutyl-3-(S-methylsulfonimidoyl)-4-(((3-(pyrrolidin-1-yl)oxetan-3-yl)methyl)amino)benzenesulfonamide] showed an IC50 [2] of over 1 µM.

`CCc1ccc(N(CC(C)C)S(=O)(=O)c2ccc(N3CCCOCC3)c(S(C)(=N)=O)c2)cc1` (stereo not shown) [compound 137, N-(4-ethylphenyl)-N-isobutyl-3-(S-methylsulfonimidoyl)-4-(1,4-oxazepan-4-yl)benzenesulfonamide] showed an IC50 [2] of 0.1 to 1 µM.

Compound `CCc1ccc(N(CC(C)C)S(=O)(=O)c2ccc(N3CCNCC3)c(S(C)(=N)=O)c2)cc1` (stereo not shown) [compound 140, N-(4-ethylphenyl)-N-isobutyl-3-(S-methylsulfonimidoyl)-4-(piperazin-1-yl)benzenesulfonamide] has an IC50 [2] of over 1 µM.

With `COc1ccc(N(C(C)C)S(=O)(=O)c2ccc(OCC3CCOCC3)c(S(C)(=N)=O)c2)c(C)c1` (stereo not shown) [compound 143, N-isopropyl-N-(4-methoxy-2-methylphenyl)-3-(S-methylsulfonimidoyl)-4-((tetrahydro-2H-pyran-4-yl)methoxy)benzenesulfonamide] the IC50 [2] was 0.1 to 1 µM.
